Measured values taken from PubChem BioAssay AID1918993 (Molecular Pharmacology Branch, DTP, NCI, 2023).
Several values for one entry are separate records, joined by “and”; a condition that tells them apart may be missing. Equal entries are not always repeated.

System: 233499-124-R-J3-PDC complex spheroid growth
Assay: Anticancer human tumor 233499-124-R-J3-PDC patient-derived colon adenocarcinoma cell line growth inhibition [AhR]
Details: for viability, T/C: stronger effect = lower value
Source text: Multicellular complex tumor spheroid response to aryl hydrocarbon receptor antagonists in combination with a variety of drugs and investigational agents in selected tumor cell lines
The current study was undertaken to assess response to aryl hydrocarbon receptor antagonists in combination with standard-of-care drugs and investigational agents in solid tumor complex spheroid models. Complex spheroids include a stromal component modeled by human endothelial cells (HUVEC) and fibroblasts modeled by human mesenchymal stem cells (MSCs). The concentration ranges selected for each drug and investigational agent were based upon clinically achievable concentrations if the clinical Cmax of the agent was known.
Compounds. The drugs and investigational agents: BAY 2416964 (NSC825713), GNF351 (NSC835774), CH-223191 (NSC835775), CPI-455 (NSC825282), aza-TdCyd (NSC777586), decitabine (NSC127716), belinostat (NSC758774), entinostat (NSC756642), pevonedistat (NSC761192), tazemetostat (NSC777109), talazoparib (NSC765396), olaparib (NSC753686), selinexor (NSC780203), nedisertib (M3814, NSC802822), bortezomib (NSC756655), venetoclax (NSC766270), doxorubicin (NSC123127), elimusertib (BAY189344, NSC800525), ceralasertib (AZD6738, NSC777638), TAK-243 (NSC785004), alisertib (NSC759677), etoposide (NSC141540), topotecan (NSC609699), eribulin (NSC707389), gemcitabine (NSC613327), carboplatin (NSC241240), cisplatin (NSC119875), and SN-38 (NSC673596) were obtained from the National Cancer Institute (NCI) Developmental Therapeutics Program Chemical Repository (32). The FDA-approved anticancer drug set is available from the Developmental Therapeutics Program at https://dtp.cancer.gov/organization/dscb/obtaining/available plates.htm. […] The stock solutions were prepared in dimethyl sulfoxide (DMSO, Sigma-Aldrich, St. Louis, MO, cat. D2650), except for the platinum compounds which were prepared in saline (Quality Biological, Gaithersburg, MD, cat. 114-055-101), at 800-fold the tested concentration and stored at -70 degrees C prior to their use. All drugs and investigational agents were tested over a range starting from a high concentration at or near the clinical Cmax and decreasing in half-log increments. If the clinical Cmax for an agent had not been determined, the highest concentration tested was 10 microM (Table 1).
Cell Culture. All cells were maintained in an incubator at 37 degrees C and 5% CO2 with 95% humidity. The PDC lines were cultured according to standard operating procedures established by the NCI PDMR (https://pdmr.cancer.gov). Briefly, all PDCs were thawed and cultured in Matrigel-coated flasks prepared with a working solution of 1X Ham's F-12 nutrient mix, without supplementation (Invitrogen, Waltham, MA, cat. 11765054), 100 U/mL penicillin-streptomycin (Invitrogen, cat. 15140122), and 2.5% Matrigel (Corning Inc., Corning, NY, cat. 354248) for the first three passages. All PDCs were cultured in complete DMEM/F-12 media containing advanced DMEM/F-12 (Invitrogen, cat. 12634028), 4.9% defined fetal bovine serum, heat inactivated (HyClone Laboratories Inc., Logan, UT, cat. SH30070.03HI), 389 ng/mL hydrocortisone (Sigma-Aldrich, cat. H4001), 9.7 ng/mL human EGF recombinant protein (Invitrogen, cat. PHG0313), 23.4 microg/mL adenine (Sigma-Aldrich, cat. A2786), 97.3 U/mL penicillin-streptomycin (Invitrogen, cat. 15140122), 1.9 mM L-glutamine (Invitrogen, cat. 25030081), and 9.7 microM Y-27632 dihydrochloride (Tocris Bioscience, Bristol, United Kingdom, cat. 1254). The PDCs were cultured in complete DMEM/F12 media without 10 microM Y-27632 dihydrochloride for at least two passages prior to the screen. The established cell lines NCI-H1341 and […] were cultured in DMEM/F-12, HEPES (Invitrogen, cat. 11330032), 5% defined fetal bovine serum (HyClone Laboratories Inc., cat. SH30070.03), ITS premix universal culture supplement [insulin (5 microg/mL), transferrin (5 microg/mL), and selenious acid (5 ng/mL)] […]
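Further: spheroids exposed to agents for seven days before reading.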

| Structure (SMILES) | viability, T/C (compound 0.0316 µM) | viability, T/C (compound 0.1 µM) | viability, T/C (compound 0.316 µM) | viability, T/C (compound 1 µM) | viability, T/C (compound 3.16 µM) | viability, T/C (compound 10 µM) | IC50 (curve of compound) | further results |
| --- | --- | --- | --- | --- | --- | --- | --- | --- |
| COc1cccc2c1C(=O)c1c(O)c3c(c(O)c1C2=O)CC(O)(C(=O)CO)CC3OC1CC(N)C(O)C(C)O1 (stereo unspecified) | 98% and 91.4% and 90.8% | 85.2% and 85.3% and 89.7% | 90.2% and 92.3% and 93.3% | 97.9% and 97.3% and 87.4% | 66.9% and 78% and 60.5% | 60% and 71.6% and 40.6% | > 10 µM and 5.81 µM | – |
| Cc1ccccc1N=Nc1ccc(NC(=O)c2ccnn2C)c(C)c1 | – | 102% [middle of 20 runs] | – | – | – | 97.8% [middle of 20 runs] | – | IC50 (compound alone, run of 07/26/2022): > 10 µM |
| Cc1cncc(-c2nc(NCCc3c[nH]c4ccccc34)c3ncn(C(C)C)c3n2)c1 | – | 96.2% [middle of 20 runs] | 86.2% [middle of 19 runs] | 78.4% [middle of 20 runs] | – | – | – | IC50 (compound alone, run of 07/18/2022): 4.98 µM [middle of 23 runs] |
| Cn1ncnc1C1c2n[nH]c(=O)c3cc(F)cc(c23)NC1c1ccc(F)cc1 (stereo unspecified) | 92.5% and 107% and 103% | 96.4% and 91.3% and 92.3% | – | – | – | – | > 0.1 µM | viability, T/C (compound 0.000316 µM): 97.9% and 96.7% and 93.9%; viability, T/C (compound 0.001 µM): 108% (2×) and 81%; viability, T/C (compound 0.00316 µM): 108% and 106% and 97.9%; viability, T/C (compound 0.01 µM): 102% and 109% and 99.2% |
| NS(=O)(=O)OCC1CC(n2ccc3c(NC4CCc5ccccc54)ncnc32)CC1O (stereo unspecified) | 101% (2×) and 105% | 107% and 91.4% and 77.7% | 98.2% and 66% and 47.5% | 18.1% and 25.5% and 14% | 5.89% and 5.66% and 5.16% | 3% and 4.4% and 2.68% | 0.632 µM and 0.486 µM and 0.266 µM | – |
| Nc1ccccc1NC(=O)c1ccc(CNC(=O)OCc2cccnc2)cc1 | 91.6% and 84.4% and 104% | 97.2% and 106% and 99.6% | 105% and 112% and 109% | 98% and 113% and 100% | 43.9% and 84.1% and 51.4% | 5.82% and 10.2% and 8.69% | 2.78 µM and 5.37 µM and 3.28 µM | – |
| Nc1ccn(C2OC(CO)C(O)C2(F)F)c(=O)n1 (stereo unspecified) | 108% and 76.6% and 99.2% | 91.1% and 89.1% and 80.1% | 75.9% and 48.8% and 61.6% | 51.4% and 43.7% and 46.9% | 45.5% and 50.5% and 62.4% | 54.1% and 54.5% and 59.6% | – | – |
| Nc1ncn(C2CC(O)C(CO)O2)c(=O)n1 (stereo unspecified) | 89.7% and 85.1% and 97% | 94.7% and 85.4% and 97.1% | 92.5% and 90.6% and 99.1% | 86.9% and 92.4% and 92.5% | – | – | > 1 µM | viability, T/C (compound 0.00316 µM): 100% and 95.5% and 94.7%; viability, T/C (compound 0.01 µM): 99.2% and 102% and 92.5% |
| Nc1ncn(C2CC(O)C(CO)S2)c(=O)n1 (stereo unspecified) | – | – | – | – | – | – | > 0.3 µM | viability, T/C (compound 0.000949 µM): 94.5% and 95.6% and 104%; viability, T/C (compound 0.003 µM): 108% and 104% and 118%; viability, T/C (compound 0.00949 µM): 102% and 112% and 110%; viability, T/C (compound 0.03 µM): 107% and 101% and 116%; viability, T/C (compound 0.0949 µM): 103% and 105% and 100%; viability, T/C (compound 0.3 µM): 98.6% and 109% and 104% |
| O=C(C=Cc1cccc(S(=O)(=O)Nc2ccccc2)c1)NO | 98.2% and 96.2% and 89.6% | 112% and 105% and 102% | 97.2% and 109% and 111% | 115% (2×) and 109% | 95.7% and 101% and 82.7% | 19.4% and 12.2% and 13.2% | 6.32 µM and 6.14 µM and 5.43 µM | – |
| O=C(C=Cn1cnc(-c2cc(C(F)(F)F)cc(C(F)(F)F)c2)n1)NNc1cnccn1 | – | – | – | – | – | – | > 3 µM | viability, T/C (compound 0.00949 µM): 101% and 111% and 105%; viability, T/C (compound 0.03 µM): 104% and 93.9% and 109%; viability, T/C (compound 0.0949 µM): 105% and 106% and 103%; viability, T/C (compound 0.3 µM): 108% and 96.7% and 90.6%; viability, T/C (compound 0.949 µM): 81.6% and 74.5% and 86%; viability, T/C (compound 3 µM): 60.7% and 70.6% and 74.3% |
| O=C(c1cc(Cc2n[nH]c(=O)c3ccccc23)ccc1F)N1CCN(C(=O)C2CC2)CC1 | 103% and 99.9% and 91.7% | 97.6% and 103% and 104% | 97.3% and 100% and 107% | 108% and 113% and 102% | 108% and 92.6% and 99.9% | 93.2% and 85.1% and 76.2% | > 10 µM | – |
